From patent US10124004B2, “Pyrido[3,4-d]pyrimidine derivative and pharmaceutically acceptable salt thereof” (Teijin Pharma Limited, priority 2015, dated 2018)
Where two headings read alike, the source gives them in different places.

How the values were obtained:
CDK4/cyclin D3 = target: T1, CDK4/cyclin D3 (Homo sapiens, UniProt P11802); assay: Human CDK4/cyclin D3 inhibitory activity (QS S Assist CDK4/Cyclin D3_FP Kit, IMAP fluorescence polarization); type: biochemical
T1 construct: purchased Carna Biosciences, Inc. QS S Assist CDK4/Cyclin D3_FP Kit
T1 sequence (P11802 whole entry): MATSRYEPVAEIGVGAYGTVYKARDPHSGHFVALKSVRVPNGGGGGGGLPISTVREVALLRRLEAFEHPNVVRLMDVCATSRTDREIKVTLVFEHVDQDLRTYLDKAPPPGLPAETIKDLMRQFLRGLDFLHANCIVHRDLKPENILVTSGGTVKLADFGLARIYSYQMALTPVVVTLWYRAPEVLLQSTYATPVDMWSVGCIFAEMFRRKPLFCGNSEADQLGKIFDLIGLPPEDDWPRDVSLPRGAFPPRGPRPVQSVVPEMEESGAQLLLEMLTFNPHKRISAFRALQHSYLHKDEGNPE
T1 sequence (P30281 whole entry partner): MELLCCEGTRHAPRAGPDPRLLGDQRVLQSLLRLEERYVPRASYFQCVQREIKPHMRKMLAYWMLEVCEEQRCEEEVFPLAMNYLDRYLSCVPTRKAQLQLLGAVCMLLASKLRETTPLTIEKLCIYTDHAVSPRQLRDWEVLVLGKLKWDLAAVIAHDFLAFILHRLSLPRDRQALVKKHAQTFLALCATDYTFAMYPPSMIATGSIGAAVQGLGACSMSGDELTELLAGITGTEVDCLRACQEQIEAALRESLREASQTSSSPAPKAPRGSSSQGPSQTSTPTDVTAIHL
Method in brief: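 Percent inhibition, relative to DMSO with and without enzyme, was curve-fitted to give IC50 from polarization (ex 485, em 535 nm). The 45-min room-temperature reaction used 12.5-25 ng/well enzyme, kit ATP/substrate/metal mix, and HEPES pH 7.4 buffer with Tween20 and DTT, followed by 30-min IMAP binding in the dark.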

CDK2/cyclin A2 = target: T2, CDK2/cyclin A2 (Homo sapiens, UniProt P24941); assay: Human CDK2/cyclin A2 inhibitory activity (QS S Assist CDK2/Cyclin A2_FP Kit, IMAP fluorescence polarization); type: biochemical
T2 construct: purchased Carna Biosciences, Inc. QS S Assist CDK2/Cyclin A2_FP Kit
Method in brief: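 Kinase activity read as fluorescence polarization (485/535 nm) after phosphorylated fluorescent substrate binds IMAP reagent (30 min, RT, dark). Enzyme (2.5 ng/well) reacted 60 min at RT with ATP/substrate/metal in HEPES pH 7.4 buffer with Tween 20 and DTT; no-enzyme wells define 0% activity; IC50 by curve fit.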

[1] = 50% inhibitory concentration against CDK4/cyclin D3, given as class symbol
[2] = 50% inhibitory concentration against CDK2/cyclin A2, given as class symbol
[3] = Human CDK4/cyclin D3 inhibitory activity, read-out: CDK4 Activity symbol
[4] = Human CDK2/cyclin A2 inhibitory activity, read-out: CDK2 Activity symbol

| SMILES | IC50 (CDK4/cyclin D3; [1]) [nM] | IC50 (CDK2/cyclin A2; [2]) [nM] | IC50 (CDK4/cyclin D3; [3]) [nM] | IC50 (CDK2/cyclin A2; [4]) [nM] |
| --- | --- | --- | --- | --- |
| CCCNc1nc([C@@H](C)O)cc2cnc(Nc3ccc(N4CCN(C)CC4)nn3)nc12 [Compound 1102] | < 10 | ≥ 100 | – | – |
| CN(C)CCOc1ccc(Nc2ncc3cc(C(F)F)nc(N[C@H]4CCCOC4)c3n2)nc1 [Compound 382] | – | – | < 10 | ≥ 100 |
| CC(=O)c1cc2cnc(Nc3ccc(N4CCNCC4)cn3)nc2c(NC(C)(C)C)n1 [Compound 59] | – | – | < 10 | ≥ 100 |
| CC(C)Nc1nc([C@@H](C)O)cc2cnc(Nc3ccc4c(n3)CCN(C(=O)CN(C)C)C4)nc12 [Compound 905] | < 10 | ≥ 100 | – | – |
| CC(=O)N1CCN(Cc2ccc(Nc3ncc4cc(C(F)F)nc(NC(C)C)c4n3)nc2)CC1 [Compound 117] | – | – | < 10 | ≥ 100 |
| CO[C@H](C)c1cc2cnc(Nc3ccc(CN4CCN(CC(N)=O)CC4)cn3)nc2c(NC(C)C)n1 [Compound 970] | < 10 | ≥ 100 | – | – |
| CC(C)Nc1nc([C@@H](C)O)cc2cnc(Nc3ccc(NC(=O)C4CCNCC4)cn3)nc12 [Compound 768] | < 10 | ≥ 100 | – | – |
| C[C@@H](O)c1cc2cnc(Nc3ccc(N4CCC(O)CC4)nn3)nc2c(N[C@H]2CCCOC2)n1 [Compound 595] | – | – | < 10 | ≥ 100 |
| CC(C)Nc1nc([C@@H](C)O)cc2cnc(Nc3ccc(O[C@@H]4CCNC[C@H]4F)cn3)nc12 [Compound 567] | – | – | < 10 | ≥ 100 |
| CC(C)Nc1nc([C@H](C)O)cc2cnc(Nc3ccc(N4CCNCC4=O)cn3)nc12 [Compound 1217] | 10 to 100 | ≥ 100 | – | – |
| CO[C@H](C)c1cc2cnc(Nc3ccc(CN4CCNCC4)nn3)nc2c(NC(C)C)n1 [Compound 246] | – | – | < 10 | ≥ 100 |
| CC(O)c1cc2cnc(Nc3ccc(N4CCNCC4)cn3)nc2c(NC2CCOC2)n1 (stereo not shown) [Compound 92] | – | – | < 10 | ≥ 100 |
| CCNc1nc([C@@H](C)O)cc2cnc(Nc3ccc(CN4CCN(CCO)C[C@@H]4C)cn3)nc12 [Compound 983] | < 10 | ≥ 100 | – | – |
| CO[C@H](C)c1cc2cnc(Nc3ccc(CN4CCOCC4=O)cn3)nc2c(NC(C)C)n1 [Compound 199] | – | – | 10 to 100 | ≥ 100 |
| CC(C)Oc1nc(C(F)F)cc2cnc(Nc3ccc(N4CCNCC4)cn3)nc12 [Compound 7] | – | – | < 10 | ≥ 100 |
| CC(C)Nc1nc(C(F)F)cc2cnc(Nc3ccc(CN(C[C@H]4CCCO4)S(C)(=O)=O)cn3)nc12 [Compound 148] | – | – | 10 to 100 | ≥ 100 |
| CC(C)Nc1nc(C(F)F)cc2cnc(Nc3ccc(N4CCN(C)CC4)cn3)nc12 [Compound 42] | – | – | < 10 | 10 to 100 |
| CNC1CC2(C1)CN(c1ccc(Nc3ncc4cc([C@@H](C)O)nc(NC(C)C)c4n3)nn1)C2 [Compound 606] | – | – | < 10 | ≥ 100 |
| CO[C@H](C)c1cc2cnc(Nc3ccc(N4CCCCC(N)C4=O)cn3)nc2c(NC(C)C)n1 (stereo partly shown) [Compound 553] | – | – | < 10 | ≥ 100 |
| CCNc1nc([C@@H](C)O)cc2cnc(Nc3ccc(CN4CCN(CC(C)(C)O)CC4)cn3)nc12 [Compound 1073] | < 10 | ≥ 100 | – | – |
| CC(=O)c1cc2cnc(Nc3ccc(N4CCNCCC4=O)cn3)nc2c(NC(C)C)n1 [Compound 1029] | < 10 | ≥ 100 | – | – |
| C[C@@H](O)c1cc2cnc(Nc3ccc(CN4CCNCC4)cn3)nc2c(N[C@H]2CCOC2)n1 [Compound 258] | – | – | < 10 | ≥ 100 |
| CCNc1nc([C@@H](C)O)cc2cnc(Nc3ccc(CN4CCN(CCO)CC4(C)C)cn3)nc12 [Compound 1203] | 10 to 100 | ≥ 100 | – | – |
| CNC(=O)C1CCN(Cc2ccc(Nc3ncc4cc([C@@H](C)OC)nc(NC(C)C)c4n3)nc2)CC1 [Compound 278] | – | – | < 10 | ≥ 100 |
| CO[C@H](C)c1cc2cnc(Nc3ccc(CN4CCNCC4)cn3)nc2c(NCCCF)n1 [Compound 1227] | < 10 | ≥ 100 | – | – |
| CO[C@H](C)c1cc2cnc(Nc3ccc(CN4CCNCC4)cn3)nc2c(NCC(C)C)n1 [Compound 861] | < 10 | ≥ 100 | – | – |
| CO[C@H](C)c1cc2cnc(Nc3ccc(OCC(=O)N4CCNCC4)cn3)nc2c(NC(C)C)n1 [Compound 557] | – | – | < 10 | ≥ 100 |
| CCNc1nc(C(F)F)cc2cnc(Nc3ccc(N4CCNCC4)cn3)nc12 [Compound 20] | – | – | < 10 | ≥ 100 |
| CC(C)Nc1nc([C@@H](C)O)cc2cnc(Nc3ccc(SCCN(C)C)nn3)nc12 [Compound 614] | – | – | < 10 | ≥ 100 |
